According to paper PMC3222648, “Inotropic Action of the Puberty Hormone Kisspeptin in Rat, Mouse and Human: Cardiovascular Distribution and Characteristics of the Kisspeptin Receptor” (PLoS ONE, 2011):
Entries after “also recorded” stand apart in the source; their conditions may differ. Where no end group is shown, it is not given here.

Assays:
Kiss1r ^−/− atria = assay: Inotropic activity in atria of mice with targeted disruption of Kiss1r; design: species or system mouse
Description: (§1) Paired rat or mouse atria, or 4 mm strips of human atrial appendage, were mounted in 10 ml organ baths containing oxygenated Krebs solution at 37°C as described previously. Tension on the tissue was adjusted to 50% of that at which the maximum force was generated and then paced at 1 Hz, square-wave pulse, 5 ms duration, with the voltage just above threshold (<4.0 V). […] Experiments were terminated by the addition of 6.7 mM CaCl2 (final bath concentration 8.95 mM) and responses expressed as a % of this CaCl2 maximum.
(§2) Radioligand binding study data were analyzed using the iterative, non-linear curve fitting programs EBDA and LIGAND in the KELL package (Biosoft, Cambridge, UK). Pooled KD, BMAX and Hill slopes (nH) were expressed as mean±SEM and normalized to protein concentrations. In vitro pharmacology data agonist responses were expressed as %CaCl2 response in the paced atrial tissues and %KCl in the vasoconstrictor studies and data were fitted to a four parameter logistic equation using an iterative curve-fitting program (FigSys, Biosoft, Cambridge, UK) to obtain values for potency (pD2: the negative logarithm to the base 10 of the EC50) and maximum response (EMAX: %CaCl2 or %KCl, respectively) expressed as mean±SEM. Where appropriate, values were compared by one-way analysis of variance (ANOVA). […]

[1] = tested on: human coronary artery and umbilical vein; settings: ref [31]; cited from earlier work
Description: We have recently identified a further role for kisspeptin as a vasoactive peptide. We detected kisspeptin and kisspeptin receptor expression in human vasculature, and intriguingly found this to be restricted to the aorta, coronary artery and umbilical vein, vessels with the same developmental origin. […] However, to our knowledge, a cardiac role of kisspeptin has not yet been investigated in man, nor any cardiovascular effects ...

kisspeptin receptor [2] = biological target: T1, kisspeptin receptor (Mus musculus, UniProt Q91V45); assay: Inotropic activity in mouse paced atria, wild type (Kiss1r ^+/+); settings: % of CaCl2 maximum (8.95 mM final), mean ± SEM, n = 6, read-out: Emax (maximum positive inotropic response)
T1 construct: Paired rat or mouse atria; from tissue; host or cells: mouse paired atria, wild type
T1 sequence (Q91V45 whole entry): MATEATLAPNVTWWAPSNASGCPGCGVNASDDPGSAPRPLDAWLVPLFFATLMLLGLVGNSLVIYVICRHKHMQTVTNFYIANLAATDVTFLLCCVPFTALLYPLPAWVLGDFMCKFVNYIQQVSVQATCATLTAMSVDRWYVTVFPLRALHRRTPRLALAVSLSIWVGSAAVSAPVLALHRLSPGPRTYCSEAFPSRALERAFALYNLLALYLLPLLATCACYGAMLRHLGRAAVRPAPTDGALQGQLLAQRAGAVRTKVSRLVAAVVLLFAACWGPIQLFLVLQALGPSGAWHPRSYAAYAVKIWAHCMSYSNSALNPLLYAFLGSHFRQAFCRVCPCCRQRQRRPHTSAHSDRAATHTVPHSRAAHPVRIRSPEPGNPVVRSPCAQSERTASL
Description: as §1, §2

[3] = tested on: endothelium-denuded rat aortic rings; assay: Vasoconstrictor activity in endothelium-denuded rat aorta; settings: mean ± SEM, ET-1 n = 7, KP-10 tissues from 4 animals, KP-54 tissues from 3 animals
Description: Rat thoracic aorta was cleaned of connective tissue and cut into 4 mm rings and the endothelial layer removed by gentle rubbing. Tissues were set to a basal tension at which the maximum response to 100 mM KCl was generated and subsequent responses to kisspeptins were expressed as % of this KCl response. Aortic rings were then contracted with 10 µM phenylephrine and 1 µM ACh was added; a reduction in the phenylephrine response of <10% was taken as evidence of removal of endothelium. […] Experiments were terminated by the addition of 100 mM KCl and agonist responses were expressed as a % of this KCl maximum.
Radioligand binding study data were analyzed using the iterative, non-linear curve fitting programs EBDA and LIGAND in the KELL package (Biosoft, Cambridge, UK). Pooled KD, BMAX and Hill slopes (nH) were expressed as mean±SEM and normalized to protein concentrations. In vitro pharmacology data agonist responses were expressed as %CaCl2 response in the paced atrial tissues and %KCl in the vasoconstrictor studies and data were fitted to a four parameter logistic equation using an iterative curve-fitting program (FigSys, Biosoft, Cambridge, UK) to obtain values for potency (pD2: the negative logarithm to the base 10 of the EC50) and maximum response (EMAX: %CaCl2 or %KCl, respectively) expressed as mean±SEM. Where appropriate, values were compared by one-way analysis of variance (ANOVA). In all cases P<0.05 was considered statistically significant and n-values were the number of animals or patients from which data were obtained.

kisspeptin receptor [4] = biological target: kisspeptin receptor (Rattus norvegicus, UniProt Q924U1); assay: Inotropic activity in rat paced paired atria; design: Paired rat or mouse atria; from tissue; host or cells: rat paired atria
Chain of kisspeptin receptor (Rattus norvegicus, UniProt Q924U1) (Q924U1 whole entry): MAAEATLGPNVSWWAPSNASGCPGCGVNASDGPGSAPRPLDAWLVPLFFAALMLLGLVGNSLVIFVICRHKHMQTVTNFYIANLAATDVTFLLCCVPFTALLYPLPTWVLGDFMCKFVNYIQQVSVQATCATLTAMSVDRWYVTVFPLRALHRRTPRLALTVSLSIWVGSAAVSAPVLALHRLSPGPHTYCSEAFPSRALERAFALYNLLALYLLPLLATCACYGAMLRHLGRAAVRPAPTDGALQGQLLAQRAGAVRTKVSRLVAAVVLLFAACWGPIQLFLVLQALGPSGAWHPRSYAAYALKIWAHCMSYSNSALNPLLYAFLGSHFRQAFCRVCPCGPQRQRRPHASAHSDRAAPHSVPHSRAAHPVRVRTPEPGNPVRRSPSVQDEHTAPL
Description: (§3) Paired rat or mouse atria, or 4 mm strips of human atrial appendage, were mounted in 10 ml organ baths containing oxygenated Krebs solution at 37°C as described previously. […] Experiments were terminated by the addition of 6.7 mM CaCl2 (final bath concentration 8.95 mM) and responses expressed as a % of this CaCl2 maximum. Radioligand binding study data were analyzed using the iterative, non-linear curve fitting programs EBDA and LIGAND in the KELL package (Biosoft, Cambridge, UK). Pooled KD, BMAX and Hill slopes (nH) were expressed as mean±SEM and normalized to protein concentrations. […] Where appropriate, values were compared by one-way analysis of variance (ANOVA). In all cases P<0.05 was considered statistically significant and n-values were the number of animals or patients from which data were obtained.

[5] = ref [47]; cited from earlier work
kisspeptin receptor [6] = biological target: T2, kisspeptin receptor (Homo sapiens, UniProt Q969F8); assay: Inotropic activity in human paced atrial strips; settings: human atrial strips
T2 construct: cryostat-cut sections of human (15 µm) or rat (10 µm) heart; from tissue; host or cells: human right atria (control, dilated cardiomyopathy, ischaemic heart disease), cryostat sections
T2 sequence (Q969F8 whole entry): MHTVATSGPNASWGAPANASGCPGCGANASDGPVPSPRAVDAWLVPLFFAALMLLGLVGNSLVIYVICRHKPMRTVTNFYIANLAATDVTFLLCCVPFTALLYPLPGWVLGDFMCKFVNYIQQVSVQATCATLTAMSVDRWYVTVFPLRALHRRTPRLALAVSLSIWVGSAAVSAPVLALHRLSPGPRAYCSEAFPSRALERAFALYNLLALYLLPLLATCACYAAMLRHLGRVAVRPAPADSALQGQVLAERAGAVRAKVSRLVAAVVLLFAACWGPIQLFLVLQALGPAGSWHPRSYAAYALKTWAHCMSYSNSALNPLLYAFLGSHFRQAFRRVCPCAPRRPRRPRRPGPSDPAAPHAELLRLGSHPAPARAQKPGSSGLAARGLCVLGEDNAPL
Description: as §3

Molecule | inotropic response in Kiss1r ^−/− atria (Kiss1r ^−/− atria) | vasoconstrictor activity [1] | Emax (kisspeptin receptor [2]) [%] | EMAX (maximum vasoconstrictor response) ([3]; % of 100 mM KCl maximum, endothelium-denuded rat aorta) [% KCl] | pD2 (vasoconstriction) ([3]; endothelium-denuded rat thoracic aortic rings, KP-10, KP-54 10^−12–3×10^−9 M, ET-1 10^−10–3×10^−7 M) | lusitropic effects (kisspeptin receptor [4]; rat atria, half time to peak force and half time to relaxation) | Emax (kisspeptin receptor [4]; read-out: EMAX (maximum positive inotropic response)) [%] | anti-angiogenic activity [5] | Emax (kisspeptin receptor [6]; % of CaCl2 maximum (8.95 mM final), mean ± SEM, n = 5, read-out: EMAX (maximum positive inotropic response)) [%] | lusitropic effects (kisspeptin receptor [6]; half time to peak force and half time to relaxation)
kisspeptin: Kisspeptin, or KP-54; also used generically for the endogenous peptides and kisspeptin-like immunoreactivity (GTSLSPPPESSGSPQQPGLSAPHSRQIPAPQGAVLVQREKDLPNYNWNSFGLRF; ends and bridges not checked; UniProt Q15726 68-121, looked up) | No response | potent vasoconstrictor | – | – | – | – | – | – | – | –
CC[C@H](C)[C@H](NC(=O)[C@H](CCC(N)=O)NC(=O)[C@H](CCCNC(=N)N)NC(=O)[C@H](CO)NC(=O)[C@H](Cc1c[nH]cn1)NC(=O)[C@@H]1CCCN1C(=O)[C@H](C)NC(=O)[C@H](CO)NC(=O)[C@H](CC(C)C)NC(=O)CNC(=O)[C@@H]1CCCN1C(=O)[C@H](CCC(N)=O)NC(=O)[C@H](CCC(N)=O)NC(=O)[C@H](CCCNC(=N)N)NC(=O)[C@H](CO)NC(=O)CNC(=O)[C@H](CO)NC(=O)[C@H](CO)NC(=O)[C@H](CCC(=O)O)NC(=O)[C@@H]1CCCN1C(=O)[C@@H]1CCCN1C(=O)[C@@H]1CCCN1C(=O)[C@H](CO)NC(=O)[C@H](CC(C)C)NC(=O)[C@H](CO)NC(=O)[C@@H](NC(=O)CN)[C@@H](C)O)C(=O)N1CCC[C@H]1C(=O)N[C@@H](C)C(=O)N1CCC[C@H]1C(=O)N[C@@H](CCC(N)=O)C(=O)NCC(=O)N[C@@H](C)C(=O)N[C@H](C(=O)N[C@@H](CC(C)C)C(=O)N[C@H](C(=O)N[C@@H](CCC(N)=O)C(=O)N[C@@H](CCCNC(=N)N)C(=O)N[C@@H](CCC(=O)O)C(=O)N[C@@H](CCCCN)C(=O)N[C@@H](CC(=O)O)C(=O)N[C@@H](CC(C)C)C(=O)N1CCC[C@H]1C(=O)N[C@@H](CC(N)=O)C(=O)N[C@@H](Cc1ccc(O)cc1)C(=O)N[C@@H](CC(N)=O)C(=O)N[C@@H](Cc1c[nH]c2ccccc12)C(=O)N[C@@H](CC(N)=O)C(=O)N[C@@H](CO)C(=O)N[C@@H](Cc1ccccc1)C(=O)NCC(=O)N[C@@H](CC(C)C)C(=O)N[C@@H](CCCNC(=N)N)C(=O)N[C@@H](Cc1ccccc1)C(N)=O)C(C)C)C(C)C [KP-54] | lack of effect; also recorded: no inotropic response | – | 26 ± 4 | 97±1 | 10.47±0.26 | Lusitropic effects were not observed | 14 ± 2 | anti-angiogenic | 82 ± 13 | Lusitropic effects were not observed
